Some results are limits rather than exact numbers.

For test [1], the target named is T1, PKC isoenzyme γ (Homo sapiens, UniProt P05129).
T1 construct: made in house; host or cells: baculovirus-insect cell expression system
As to the kind of experiment: Protein kinase C inhibition assay, PKC isoenzyme γ. It counts as biochemical. The settings on record: read-out: IC50 PKC γ. In a few lines: (§1)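 Radiometric filter assay: enzyme from baculovirus-infected insect cells, H1 or Mbp acceptor, PS/DAG vesicles at suboptimal lipid levels, physiologic-like buffer. Test compound 1–150 μM (four levels, DMSO). 10 min reaction, 25% TCA + BSA stop, scintillation count; IC50 = 50% inhibition of control activity.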

The test system of test [2] is normal human epidermal keratinocyte (NHEK) cells. As to the kind of experiment: Human Keratinocyte Inhibition (3H TdR Assay). Type of test: cell-based. The note with it: 24 h incubation, 3H-thymidine.
Test [3] concerns the target T2, PKC isoenzyme δ (Homo sapiens, UniProt Q05655).
T2 construct: made in house; host or cells: baculovirus-insect cell expression system
As to the kind of experiment: Protein kinase C inhibition assay, PKC isoenzyme δ. The settings on record: read-out: IC50 PKC δ. It counts as biochemical. The method, boiled down: as §1

The subject of test [4] is cAMP dependent protein kinase (PKA). As to the kind of experiment: cAMP Dependent Protein Kinase (PKA) Assay. It counts as biochemical. The note with it: for effect on PKA activity: result in words; for IC50: catalytic subunit of PKA. The method, boiled down: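 PKA catalytic subunit preincubated with test compound added from DMSO at final 30 and 150 μM; reaction started with ^32P-ATP, run 10 min, stopped with 25% TCA plus BSA. Phosphorylated protein collected by filtration and counted by beta scintillation.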

T2 sequence (Q05655 whole entry): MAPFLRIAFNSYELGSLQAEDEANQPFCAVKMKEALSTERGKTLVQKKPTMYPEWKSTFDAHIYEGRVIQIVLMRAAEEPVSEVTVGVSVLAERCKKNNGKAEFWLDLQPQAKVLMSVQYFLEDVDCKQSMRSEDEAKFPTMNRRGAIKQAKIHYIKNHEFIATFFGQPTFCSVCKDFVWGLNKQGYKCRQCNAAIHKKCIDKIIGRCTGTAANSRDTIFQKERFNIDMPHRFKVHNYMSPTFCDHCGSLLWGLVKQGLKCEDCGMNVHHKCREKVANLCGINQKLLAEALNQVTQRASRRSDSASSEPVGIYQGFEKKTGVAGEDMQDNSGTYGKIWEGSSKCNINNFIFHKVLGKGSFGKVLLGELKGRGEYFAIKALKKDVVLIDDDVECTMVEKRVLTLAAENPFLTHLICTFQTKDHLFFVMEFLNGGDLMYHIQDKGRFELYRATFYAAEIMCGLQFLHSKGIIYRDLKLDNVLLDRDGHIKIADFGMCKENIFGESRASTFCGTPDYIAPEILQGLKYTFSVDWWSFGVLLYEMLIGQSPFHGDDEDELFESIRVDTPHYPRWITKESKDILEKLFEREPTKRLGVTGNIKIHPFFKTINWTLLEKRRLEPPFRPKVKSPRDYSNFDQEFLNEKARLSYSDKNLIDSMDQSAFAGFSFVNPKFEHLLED

A word on the IC50: it is the concentration at which inhibition is half-maximal. For the compound `Cc1cc(C)nc(NS(=O)(=O)c2cc(N=C3C=C(Nc4ccc(C)c(S(=O)(=O)Nc5cc(C)cc(C)n5)c4)C(=O)c4ccccc43)ccc2C)c1` [Compound 6ag], the half-maximal inhibitory concentration (IC50) in test [1] was 16 µM; in test [2] (Homo sapiens), 0.5 µM; in test [3], 49 µM. Further, the “effect on PKA activity” value in test [4] is given as “did not effect on PKA activity”.
Turning to `Cc1cc(C)nc(NS(=O)(=O)c2ccc(N=C3C=C(Nc4ccc(S(=O)(=O)Nc5nc(C)cc(C)n5)cc4)C(=O)c4ccccc43)cc2)n1` [Compound 6c], the half-maximal inhibitory concentration (IC50) was 7 µM in test [1], 0.04 µM in test [2], 10 µM in test [3] and 48 µM in test [4].
Consider `Cc1cc(NS(=O)(=O)c2ccc(N=C3C=C(Nc4ccc(S(=O)(=O)Nc5cc(C)nc(C)n5)cc4)C(=O)c4ccccc43)cc2)nc(C)n1` [Compound 6d], for which the IC50 is 24 µM in test [1], 2.5 µM in test [2], 47 µM in test [3] and over 150 µM in test [4]. Also, the “effect on PKA activity” value in test [4] is listed as “did not effect on PKA activity”.
Turning to `Cc1nnc(NS(=O)(=O)c2ccc(N=C3C=C(Nc4ccc(S(=O)(=O)Nc5nnc(C)s5)cc4)C(=O)c4ccccc43)cc2)s1` [Compound 6e], the concentration for half-maximal inhibition (IC50) is 12 µM in test [1], 8.6 µM in test [2], 35 µM in test [3] and 45 µM in test [4].
For the compound `Cc1ccnc(NS(=O)(=O)c2ccc(N=C3C=C(Nc4ccc(S(=O)(=O)Nc5nccc(C)n5)cc4)C(=O)c4ccccc43)cc2)n1` [Compound 6f], the IC50 in test [1] worked out at 18 µM; in test [2] it was 1.4 µM; in test [3], 43 µM; in test [4] it was 46 µM.
The corresponding values for `COc1cc(NS(=O)(=O)c2ccc(N=C3C=C(Nc4ccc(S(=O)(=O)Nc5cc(OC)nc(OC)n5)cc4)C(=O)c4ccccc43)cc2)nc(OC)n1` [Compound 6g] are 20 µM, 1.4 µM, over 150 µM and 47 µM.
Turning to `COc1cnc(NS(=O)(=O)c2ccc(N=C3C=C(Nc4ccc(S(=O)(=O)Nc5ncc(OC)cn5)cc4)C(=O)c4ccccc43)cc2)nc1` [Compound 6h], the half-inhibitory concentration (IC50) in test [1] is 41 µM; in test [2], 1.2 µM; in test [3], over 150 µM; in test [4] it was over 150 µM. Moreover, the “effect on PKA activity” value in test [4] is listed as “did not effect on PKA activity”.
Take `O=C1C(Nc2ccc(S(=O)(=O)Nc3ccccn3)cc2)=CC(=Nc2ccc(S(=O)(=O)Nc3ccccn3)cc2)c2ccccc21` [Compound 6i]: the IC50 in test [1] is 10 µM; in test [2], 7.3 µM; in test [3], 120 µM; in test [4], over 150 µM. Further, the “effect on PKA activity” value in test [4] is recorded as “did not effect on PKA activity”.
The corresponding values for `COc1ccc(NS(=O)(=O)c2ccc(N=C3C=C(Nc4ccc(S(=O)(=O)Nc5ccc(OC)nn5)cc4)C(=O)c4ccccc43)cc2)nn1` [Compound 6j] are 30 µM, 0.82 µM, 113 µM, over 150 µM and “did not effect on PKA activity”.
As to `O=C1C(Nc2ccc(S(=O)(=O)Nc3ccc(Cl)nn3)cc2)=CC(=Nc2ccc(S(=O)(=O)Nc3ccc(Cl)nn3)cc2)c2ccccc21` [Compound 6l], the IC50 stood at 9 µM in test [1], 3.3 µM in test [2], 50 µM in test [3] and 89 µM in test [4].
Consider `O=C1C(Nc2ccc(S(=O)(=O)Nc3cnc4ccccc4n3)cc2)=CC(=Nc2ccc(S(=O)(=O)Nc3cnc4ccccc4n3)cc2)c2ccccc21` [Compound 6m], for which the half-inhibitory concentration (IC50) is 10 µM in test [1], under 0.39 µM in test [2], 37 µM in test [3] and 145 µM in test [4].

The values are drawn from patent publication US5292737A, “N,N'-bis(sulfonamido)-2-amino-4-iminonaphthalen-1-ones and N,N'-bis(amido)-2-amino-4-iminonaphthalen-1-ones” (Sphinx Pharmaceuticals Corporation, priority 1992, dated 1994).
